Holding throughout (format): biochemical
One assay concerns the target TYK2 (Homo sapiens (Human), UniProt P29597). The assay can be described thus: JAK Caliper Enzyme Assay at 1 mM ATP, TYK2. The essentials:
(§1)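 Mobility-shift microfluidic read-out: substrate and phosphopeptide peaks separated, % conversion = product/(product+substrate). Reaction used recombinant human kinase domain, synthetic peptide, 1 mM ATP, RT incubation to 20–30% turnover, quenched with EDTA. Percent effect versus DMSO and positive controls, plotted against concentration.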

For the next assay, the target named is JAK1 (Homo sapiens (Human), UniProt P23458). Nature of the assay: JAK Caliper Enzyme Assay at 1 mM ATP, JAK1. The essentials:
(§2)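 Recombinant human kinase domains phosphorylate a fluorescent synthetic peptide at 1 mM ATP, room temperature, with enzyme and time tuned for 20-30% conversion; EDTA-stopped. Product/substrate separated by microfluidic mobility shift; percent effect versus DMSO and positive controls fitted to IC50 (nM).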

A further assay concerns the target JAK2 (Homo sapiens (Human), UniProt O60674). The assay can be described thus: JAK Caliper Enzyme Assay at 1 mM ATP, JAK2. The essentials: as §1
The next assay concerns the target JAK3 (Homo sapiens (Human), UniProt P52333). The assay can be described thus: JAK Caliper Enzyme Assay at 1 mM ATP, JAK3. The method, boiled down: as §2

JAK2, sequence (O60674 849-1124): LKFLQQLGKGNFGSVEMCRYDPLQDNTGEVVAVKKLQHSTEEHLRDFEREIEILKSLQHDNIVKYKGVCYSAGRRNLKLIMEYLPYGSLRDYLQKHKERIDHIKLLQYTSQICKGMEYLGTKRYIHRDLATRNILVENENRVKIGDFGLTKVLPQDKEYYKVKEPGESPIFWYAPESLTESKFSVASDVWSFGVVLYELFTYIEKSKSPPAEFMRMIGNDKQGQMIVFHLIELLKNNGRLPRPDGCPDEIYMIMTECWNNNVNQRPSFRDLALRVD
JAK1, sequence (P23458 875-1153): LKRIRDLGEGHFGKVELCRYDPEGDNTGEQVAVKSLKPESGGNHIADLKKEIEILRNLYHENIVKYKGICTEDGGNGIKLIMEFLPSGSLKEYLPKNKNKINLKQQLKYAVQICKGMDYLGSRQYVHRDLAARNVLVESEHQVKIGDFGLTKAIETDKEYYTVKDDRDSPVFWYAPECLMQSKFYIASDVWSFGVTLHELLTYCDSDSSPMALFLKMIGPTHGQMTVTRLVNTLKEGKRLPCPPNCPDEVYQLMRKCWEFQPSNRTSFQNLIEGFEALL
JAK3, sequence (P52333 822-1111): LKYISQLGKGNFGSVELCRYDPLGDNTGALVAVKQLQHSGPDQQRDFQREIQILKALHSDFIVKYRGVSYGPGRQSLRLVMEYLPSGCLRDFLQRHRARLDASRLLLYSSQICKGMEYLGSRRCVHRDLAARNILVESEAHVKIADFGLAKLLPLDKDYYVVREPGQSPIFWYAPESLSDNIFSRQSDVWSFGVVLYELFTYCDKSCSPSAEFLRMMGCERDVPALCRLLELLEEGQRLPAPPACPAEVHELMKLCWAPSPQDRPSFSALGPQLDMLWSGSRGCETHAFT
TYK2, sequence (P29597 897-1176): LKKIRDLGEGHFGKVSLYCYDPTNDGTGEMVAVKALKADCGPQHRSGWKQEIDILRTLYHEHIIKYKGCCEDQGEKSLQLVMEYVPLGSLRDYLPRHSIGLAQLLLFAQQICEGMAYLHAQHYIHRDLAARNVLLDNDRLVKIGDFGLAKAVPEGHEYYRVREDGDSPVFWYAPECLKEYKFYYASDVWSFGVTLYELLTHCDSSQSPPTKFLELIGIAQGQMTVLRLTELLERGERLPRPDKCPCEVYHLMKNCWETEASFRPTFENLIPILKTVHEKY

Regarding `CS(=O)(=O)N1CC(CC#N)(n2ccc(-c3cc(-c4cn[nH]c4)cc4ncccc34)n2)C1` [Example 284, [1-(methylsulfonyl)-3-{3-[7-(1H-pyrazol-4-yl)quinolin-5-yl]-1H-pyrazol-1-yl}azetidin-3-yl]acetonitrile], the IC50 at TYK2 is 171 nM; on JAK1 it was 6830 nM; at JAK2, 2500 nM; on JAK3, > 10000 nM.
The corresponding values for `Cn1cc(-c2cc(-c3ccn(C4(CC#N)CN(CC(F)(F)F)C4)n3)c3cccnc3c2)cn1` [Example 285, [3-{3-[7-(1-methyl-1H-pyrazol-4-yl)quinolin-5-yl]-1H-pyrazol-1-yl}-1-(2,2,2-trifluoroethyl)azetidin-3-yl]acetonitrile] are 342 nM, > 10000 nM, 2950 nM and > 10000 nM.
As to `Cn1cc(-c2cc(-c3ccn(C4(CC#N)CN(S(C)(=O)=O)C4)n3)c3cccnc3c2)cn1` [Example 286, [3-{3-[7-(1-methyl-1H-pyrazol-4-yl)quinolin-5-yl]-1H-pyrazol-1-yl}-1-(methylsulfonyl)azetidin-3-yl]acetonitrile], the IC50 at TYK2 is 212 nM; on JAK1, > 10000 nM; on JAK2 it was 1810 nM; at JAK3, > 10000 nM.
On to `CS(=O)(=O)N1CC(CC#N)(n2ccc(-c3cc(-c4ccc(=O)[nH]c4)cc4ncccc34)n2)C1` [Example 287, [1-(methylsulfonyl)-3-{3-[7-(6-oxo-1,6-dihydropyridin-3-yl)quinolin-5-yl]-1H-pyrazol-1-yl}azetidin-3-yl]acetonitrile], for which the IC50 on TYK2 was 201 nM; at JAK1, > 10000 nM; at JAK2 it was 5380 nM; on JAK3 it was > 10000 nM.
With `CS(=O)(=O)N1CC(CC#N)(n2cc(-c3cc(-c4cc[nH]n4)cc4ncccc34)cn2)C1` [Example 288, [1-(methylsulfonyl)-3-{4-[7-(1H-pyrazol-3-yl)quinolin-5-yl]-1H-pyrazol-1-yl}azetidin-3-yl]acetonitrile], the IC50 at TYK2 is 112 nM; at JAK1, 796 nM; on JAK2 it was 336 nM; on JAK3, > 10000 nM.
The corresponding values for `CS(=O)(=O)N1CC(CC#N)(n2cc(-c3cc(-c4cn[nH]c4)cc4ncccc34)cn2)C1` [Example 289, [1-(methylsulfonyl)-3-{4-[7-(1H-pyrazol-4-yl)quinolin-5-yl]-1H-pyrazol-1-yl}azetidin-3-yl]acetonitrile] are 197 nM, 1530 nM, 525 nM and > 10000 nM.
The corresponding values for `N#CC[C@]1(n2cc(-c3cc(-c4cn[nH]c4N)cc4ncccc34)cn2)C[C@H](C#N)C1` [Example 290, trans-3-{4-[7-(5-amino-1H-pyrazol-4-yl)quinolin-5-yl]-1H-pyrazol-1-yl}-3-(cyanomethyl)cyclobutanecarbonitrile] are 236 nM, 2960 nM, 1750 nM and > 10000 nM.
The corresponding values for `CO[C@H]1C[C@](CC#N)(n2cc(-c3cc(-c4c[nH]nc4N)cc4ncccc34)cn2)C1` [Example 291, (trans-1-{4-[7-(3-amino-1H-pyrazol-4-yl)quinolin-5-yl]-1H-pyrazol-1-yl}-3-methoxycyclobutyl)acetonitrile] are 343 nM, 8820 nM, 3740 nM and > 10000 nM.
Take `Cn1cc(-c2cc(-c3cnn(C4(CC#N)CN(CC#N)C4)c3)c3cccnc3c2)cn1` [Example 292, 2,2′-(3-{4-[7-(1-methyl-1H-pyrazol-4-yl)quinolin-5-yl]-1H-pyrazol-1-yl}azetidine-1,3-diyl)diacetonitrile]: the concentration for half-maximal inhibition (IC50) is 36 nM on TYK2, 653 nM at JAK1, 71 nM at JAK2 and > 10000 nM on JAK3.
The corresponding values for `Cc1cc(-c2cc(-c3cc[nH]n3)cc3ncccc23)nn1C1(CC#N)CN(S(C)(=O)=O)C1` [Example 293, [3-{5-methyl-3-[7-(1H-pyrazol-3-yl)quinolin-5-yl]-1H-pyrazol-1-yl}-1-(methylsulfonyl)azetidin-3-yl]acetonitrile] are 81 nM, 8190 nM, 2980 nM and > 10000 nM.
The corresponding values for `Cn1cc(-c2cc(-c3cn(C4(CC#N)CN(S(C)(=O)=O)C4)nn3)c3cccnc3c2)cn1` [Example 294, [3-{4-[7-(1-methyl-1H-pyrazol-4-yl)quinolin-5-yl]-1H-1,2,3-triazol-1-yl}-1-(methylsulfonyl)azetidin-3-yl]acetonitrile] are 267 nM, 1340 nM, 151 nM and > 10000 nM.
Take `CS(=O)(=O)N1CC(CC#N)(n2cc(-c3cc(-c4ccc(=O)[nH]c4)cc4ncccc34)nn2)C1` [Example 295, [1-(methylsulfonyl)-3-{4-[7-(6-oxo-1,6-dihydropyridin-3-yl)quinolin-5-yl]-1H-1,2,3-triazol-1-yl}azetidin-3-yl]acetonitrile]: the 50% inhibitory concentration (IC50) was 155 nM at TYK2, 7720 nM on JAK1, 2580 nM at JAK2 and > 10000 nM on JAK3.
For `N#CCC1(n2ncc(-c3cc(-c4cc[nH]n4)cc4ncccc34)n2)CN(CC(F)(F)F)C1` [Example 296, [3-{4-[7-(1H-pyrazol-3-yl)quinolin-5-yl]-2H-1,2,3-triazol-2-yl}-1-(2,2,2-trifluoroethyl)azetidin-3-yl]acetonitrile], the IC50 at TYK2 was 41 nM; at JAK1, 534 nM; at JAK2, 598 nM; on JAK3 it was > 10000 nM.
The corresponding values for `N#CCC1(n2ncc(-c3cc(-c4cc[nH]n4)cc4ncccc34)n2)CN(CC2(F)CC2)C1` [Example 297] are 315 nM, 4590 nM, 2470 nM and > 10000 nM.
The corresponding values for `N#CCC1(n2ncc(-c3cc(-c4cc[nH]n4)cc4ncccc34)n2)CN(S(=O)(=O)C2CC2)C1` [Example 299, [1-(cyclopropylsulfonyl)-3-{4-[7-(1H-pyrazol-3-yl)quinolin-5-yl]-2H-1,2,3-triazol-2-yl}azetidin-3-yl]acetonitrile] are 10 nM, 280 nM, 252 nM and > 10000 nM.
In the case of `N#CCC1(n2ncc(-c3cc(-c4ccn[nH]4)cc4ncccc34)n2)CN(S(=O)(=O)C2COC2)C1` [Example 301, [1-(oxetan-3-ylsulfonyl)-3-{4-[7-(1H-pyrazol-5-yl)quinolin-5-yl]-2H-1,2,3-triazol-2-yl}azetidin-3-yl]acetonitrile], the half-maximal inhibitory concentration (IC50) at TYK2 is 17 nM; at JAK1, 338 nM; on JAK2, 195 nM; at JAK3, > 10000 nM.
The corresponding values for `N#CC[C@]1(n2ncc(-c3cc(-c4cc[nH]n4)cc4ncccc34)n2)C[C@H](C#N)C1` [Example 302, trans-3-(cyanomethyl)-3-{4-[7-(1H-pyrazol-3-yl)quinolin-5-yl]-2H-1,2,3-triazol-2-yl}cyclobutanecarbonitrile] are 20 nM, 436 nM, 173 nM and > 10000 nM.
On to `N#CC[C@]1(n2ncc(-c3cc(-c4cc[nH]n4)cc4ncccc34)n2)C[C@@H](C#N)C1` [Example 303, cis-3-(cyanomethyl)-3-{4-[7-(1H-pyrazol-3-yl)quinolin-5-yl]-2H-1,2,3-triazol-2-yl}cyclobutanecarbonitrile], for which the IC50 at TYK2 stood at 5 nM; on JAK1, 81 nM; at JAK2 it was 29 nM; at JAK3, 3100 nM.
The corresponding values for `CO[C@H]1C[C@@](CC#N)(n2ncc(-c3cc(-c4cc[nH]n4)cc4ncccc34)n2)C1` [Example 304, (cis-3-methoxy-1-{4-[7-(1H-pyrazol-3-yl)quinolin-5-yl]-2H-1,2,3-triazol-2-yl}cyclobutyl)acetonitrile] are 36 nM, 2300 nM, 788 nM and > 10000 nM.
Regarding `CO[C@H]1C[C@](CC#N)(n2ncc(-c3cc(-c4cc[nH]n4)cc4ncccc34)n2)C1` [Example 305, (trans-3-methoxy-1-{4-[7-(1H-pyrazol-3-yl)quinolin-5-yl]-2H-1,2,3-triazol-2-yl}cyclobutyl)acetonitrile], the IC50 on TYK2 was 35 nM; at JAK1, 2560 nM; at JAK2, 1050 nM; on JAK3, > 10000 nM.
`N#CCC1(n2ncc(-c3cc(-c4cc(N)[nH]n4)cc4ncccc34)n2)CC(C#N)C1` (stereo not drawn) [Example 306, trans-3-{4-[7-(5-amino-1H-pyrazol-3-yl)quinolin-5-yl]-2H-1,2,3-triazol-2-yl}-3-(cyanomethyl)cyclobutanecarbonitrile]: the IC50 at TYK2 came to 14 nM; on JAK1 it was 255 nM; at JAK2, 174 nM; at JAK3 it was 9160 nM.
The corresponding values for `N#CC[C@]1(n2ncc(-c3cc(-c4cc(N)[nH]n4)cc4ncccc34)n2)C[C@@H](C#N)C1` [Example 307, cis-3-{4-[7-(5-amino-1H-pyrazol-3-yl)quinolin-5-yl]-2H-1,2,3-triazol-2-yl}-3-(cyanomethyl)cyclobutanecarbonitrile] are 7 nM, 49 nM, 30 nM and 1930 nM.

As usually defined, the IC50 is the concentration at which inhibition is half-maximal.

These data come from patent publication US11254668B2, “Pyrazolo[1,5-A]pyrazin-4-yl and related derivatives” (Pfizer Inc., priority 2017, dated 2022).
